Each block holds one molecule with its values, some of them ahead of it.
Target: T1, Bcl-2 protein (Recombinant Human Bcl-2 Protein) (Homo sapiens, UniProt P10415)
T1 construct: purchased Novus NBP2-34889
Assay: Binding evaluation of mixture library compounds to Bcl-2 using AS-MS (affinity selection mass spectrometry)
Conditions: for ASMS ratio (%) n = 1 / ASMS ratio (%) n = 2: ASMS Ratio(%)=(A−C)/B×100; for ASMS ratio (%) n = 1: replicate n = 1; for ASMS ratio (%) n = 2: replicate n = 2
Summary of the method: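 ASMS Ratio (%) was calculated as (A−C)/B×100, where A is the protein sample after SEC, B the protein-free sample without SEC and C the protein-free sample after SEC. Each compound was at […] in a 1200-member pool with 20 μM Bcl-2, incubated 1 h at 23° C.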

[1] = AS-MS on the mixture of 1200 library compounds
[2] = AS-MS, mixture of 1200 compounds, Bcl-2

T1 sequence (P10415 whole entry): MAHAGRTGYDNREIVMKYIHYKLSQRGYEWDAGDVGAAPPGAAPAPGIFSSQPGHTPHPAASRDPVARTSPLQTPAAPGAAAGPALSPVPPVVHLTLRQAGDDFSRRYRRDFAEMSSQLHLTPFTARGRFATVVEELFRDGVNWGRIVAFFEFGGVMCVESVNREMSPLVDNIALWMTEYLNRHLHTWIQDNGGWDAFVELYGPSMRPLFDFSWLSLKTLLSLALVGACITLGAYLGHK

Molecule: CCOc1cncc(C#Cc2cncc(C(=O)N3CCN(c4ccc(C(=O)NS(C)(=O)=O)cc4)CC3)c2)c1 [B2I032-01, 4-[4-[5-[2-(5-Ethoxypyridin-3-yl)ethynyl]pyridine-3-carbonyl]piperazin-1-yl]-N-methylsulfonylbenzamide]
ASMS ratio (%) n = 1 (AS-MS, mixture library, Bcl-2): −1.6% | ASMS ratio (%) n = 2 (AS-MS, mixture library, Bcl-2): −1.6%

Molecule: CCOc1cncc(C#Cc2cncc(C(=O)N3CCN(c4ccc(C(=O)NS(=O)(=O)CC56CC7CC(CC(C7)C5)C6)nn4)CC3)c2)c1 [B2A010-01, N-(1-Adamantylmethylsulfonyl)-6-[4-[5-[2-(5-ethoxypyridin-3-yl)ethynyl]pyridine-3-carbonyl]piperazin-1-yl]pyridazine-3-carboxamide]
ASMS ratio (%) n = 1 (AS-MS, mixture library, Bcl-2): 0.0% | ASMS ratio (%) n = 2 (AS-MS, mixture library, Bcl-2): 0.0%

Molecule: CCOc1cncc(-c2ccccc2CN2CCN(c3ccc(C(=O)NS(=O)(=O)C(C)(C)C)nn3)CC2)c1 [B2L072-01, N-tert-Butylsulfonyl-6-[4-[[2-(5-ethoxypyridin-3-yl)phenyl]methyl]piperazin-1-yl]pyridazine-3-carboxamide]
ASMS ratio (%) (n = 1): −10.7% | ASMS ratio (%) (n = 2): 8.3%

Molecule: CCOc1cncc(-c2ccc(CN3CCN(c4ccc(C(=O)NCC(F)(F)F)nn4)CC3)c3ccccc23)c1 [B1K092-01, 6-[4-[[4-(5-Ethoxypyridin-3-yl)naphthalen-1-yl]methyl]piperazin-1-yl]-N-(2,2,2-trifluoroethyl)pyridazine-3-carboxamide]
ASMS ratio (%) n = 1 [2]: 4.1% | ASMS ratio (%) n = 2 [2]: −0.7%

Molecule: 4-[4-[[4-(3-Ethoxyphenyl)-2-ethylphenyl]methyl]piperazin-1-yl]-N-propylbenzamide [B1M069-01]
ASMS ratio (%) n = 1 [2]: −0.2% | ASMS ratio (%) n = 2 [2]: −4.4%

Molecule: CCOc1cccc(-c2ccc(CN3CCN(c4ccc(C(=O)NS(C)(=O)=O)cc4)CC3)c(CC)c2)c1 [B2I049-01, 4-[4-[[4-(3-Ethoxyphenyl)-2-ethylphenyl]methyl]piperazin-1-yl]-N-methylsulfonylbenzamide]
ASMS ratio (%) (n = 1): 0.0% | ASMS ratio (%) (n = 2): 0.0%

Molecule: CCOc1cccc(C#Cc2ccccc2C(=O)N2CCN(c3ccc(C(=O)NS(=O)(=O)c4ccc(NCCSc5ccccc5)c([N+](=O)[O-])c4)nn3)CC2)c1 [B2Q007-01, 6-[4-[2-[2-(3-Ethoxyphenyl)ethynyl]benzoyl]piperazin-1-yl]-N-[3-nitro-4-(2-phenylsulfanylethylamino)phenyl]sulfonylpyridazine-3-carboxamide]
ASMS ratio (%) n = 1 (AS-MS, mixture library, Bcl-2): 4.2% | ASMS ratio (%) n = 2 (AS-MS, mixture library, Bcl-2): −8.3%

Molecule: CCOc1cncc(C#Cc2ccccc2C(=O)N2CCN(c3ccc(C(=O)NCC(F)(F)F)cc3)CC2)c1 [B1K030-01, 4-[4-[2-[2-(5-Ethoxypyridin-3-yl)ethynyl]benzoyl]piperazin-1-yl]-N-(2,2,2-trifluoroethyl)benzamide]
ASMS ratio (%) n = 1 [2]: 0.0% | ASMS ratio (%) n = 2 [2]: 0.9%

Molecule: CCOc1cccc(-c2ccc(C(=O)N3CCN(c4ccc(C(=O)NS(=O)(=O)c5ccc(NCCSc6ccccc6)c(C(F)(F)F)c5)cc4)CC3)c3ccccc23)c1 [B2R035-01, 4-[4-[4-(3-Ethoxyphenyl)naphthalene-1-carbonyl]piperazin-1-yl]-N-[4-(2-phenylsulfanylethylamino)-3-(trifluoromethyl)phenyl]sulfonylbenzamide]
ASMS ratio (%) (n = 1): 8.3% | ASMS ratio (%) (n = 2): 0.9%

Molecule: CCOc1cncc(-c2ccc(CN3CCN(c4ccc(C(=O)NS(=O)(=O)C(C)(C)C)nn4)CC3)c3ccccc23)c1 [B2L092-01, N-tert-Butylsulfonyl-6-[4-[[4-(5-ethoxypyridin-3-yl)naphthalen-1-yl]methyl]piperazin-1-yl]pyridazine-3-carboxamide]
ASMS ratio (%) (n = 1): 5.5% | ASMS ratio (%) (n = 2): 7.8%

Molecule: CCOc1cccc(-c2cc(CN3CCN(c4ccc(C(=O)NS(=O)(=O)c5ccc(NCCSc6ccccc6)c([N+](=O)[O-])c5)cc4)CC3)cc(OCC)c2)c1 [B2Q055-01, 4-[4-[[3-Ethoxy-5-(3-ethoxyphenyl)phenyl]methyl]piperazin-1-yl]-N-[3-nitro-4-(2-phenylsulfanylethylamino)phenyl]sulfonylbenzamide]
ASMS ratio (%) n = 1 (AS-MS, mixture library, Bcl-2): 9.0% | ASMS ratio (%) n = 2 (AS-MS, mixture library, Bcl-2): −8.3%

Molecule: CCOc1cccc(-c2ccc(CN3CCN(c4ccc(C(=O)NS(=O)(=O)c5ccc(NCCSc6ccccc6)c([N+](=O)[O-])c5)nn4)CC3)c3ccccc23)c1 [B2Q091-01, 6-[4-[[4-(3-Ethoxyphenyl)naphthalen-1-yl]methyl]piperazin-1-yl]-N-[3-nitro-4-(2-phenylsulfanylethylamino)phenyl]sulfonylpyridazine-3-carboxamide]
ASMS ratio (%) n = 1 (AS-MS, mixture library, Bcl-2): 17.2% | ASMS ratio (%) n = 2 (AS-MS, mixture library, Bcl-2): −5.0%

Molecule: CCOc1cncc(-c2cc(CN3CCN(c4ccc(C(=O)N(C)CC56CC7CC(CC(C7)C5)C6)cc4)CC3)cc(OC(F)(F)F)c2)c1 [B3A064-01, N-(1-Adamantylmethyl)-4-[4-[[3-(5-ethoxypyridin-3-yl)-5-(trifluoromethoxy)phenyl]methyl]piperazin-1-yl]-N-methylbenzamide]
ASMS ratio (%) n = 1 [1]: −7.5% | ASMS ratio (%) n = 2 [1]: −5.5%

Molecule: CCOc1cncc(-c2csc(CN3CCN(c4ccc(C(=O)NS(=O)(=O)C(C)(C)C)nn4)CC3)c2)c1 [B2L094-01, N-tert-Butylsulfonyl-6-[4-[[4-(5-ethoxypyridin-3-yl)thiophen-2-yl]methyl]piperazin-1-yl]pyridazine-3-carboxamide]
ASMS ratio (%) (n = 1): 0.2% | ASMS ratio (%) (n = 2): 1.8%

Molecule: CCOc1cncc(-c2ccccc2CN2CCN(c3ccc(C(=O)NS(=O)(=O)c4ccc(NCCSc5ccccc5)c(C(F)(F)F)c4)nn3)CC2)c1 [B2R072-01, 6-[4-[[2-(5-Ethoxypyridin-3-yl)phenyl]methyl]piperazin-1-yl]-N-[4-(2-phenylsulfanylethylamino)-3-(trifluoromethyl)phenyl]sulfonylpyridazine-3-carboxamide]
ASMS ratio (%) (n = 1): 21.4% | ASMS ratio (%) (n = 2): 11.4%

Molecule: CCOc1cncc(-c2ccccc2CCC(=O)N2CCN(c3ccc(C(=O)NS(=O)(=O)c4ccc(NCCSc5ccccc5)c(C(F)(F)F)c4)cc3)CC2)c1 [B2R034-01, 4-[4-[3-[2-(5-Ethoxypyridin-3-yl)phenyl]propanoyl]piperazin-1-yl]-N-[4-(2-phenylsulfanylethylamino)-3-(trifluoromethyl)phenyl]sulfonylbenzamide]
ASMS ratio (%) (n = 1): 0.1% | ASMS ratio (%) (n = 2): −1.3%

Further lines, results first:

ASMS ratio (%) n = 1 [1]: 3.2% | ASMS ratio (%) n = 2 [1]: −2.2%
Molecule: CCOc1cccc(-c2cc(CN3CCN(c4ccc(C(=O)Nc5ccc(OC)cc5)nn4)CC3)cc(OCC)c2)c1 [B1O081-01, 6-[4-[[3-Ethoxy-5-(3-ethoxyphenyl)phenyl]methyl]piperazin-1-yl]-N-(4-methoxyphenyl)pyridazine-3-carboxamide]

ASMS ratio (%) n = 1 [1]: 1.0% | ASMS ratio (%) n = 2 [1]: 3.2%
Molecule: CCOc1cncc(-c2cc(C(=O)N3CCN(c4ccc(C(=O)Nc5ccc(OC)cc5)nn4)CC3)cc(C(F)(F)F)c2)c1 [B1O018-01, 6-[4-[3-(5-Ethoxypyridin-3-yl)-5-(trifluoromethyl)benzoyl]piperazin-1-yl]-N-(4-methoxyphenyl)pyridazine-3-carboxamide]

ASMS ratio (%) (n = 1): 0.0% | ASMS ratio (%) (n = 2): −5.4%
Molecule: CCOc1cncc(-c2cc(C(=O)N3CCN(c4ccc(C(=O)NS(=O)(=O)C(C)(C)C)nn4)CC3)cc(C(C)(C)C)c2)c1 [B2L016-01, 6-[4-[3-tert-Butyl-5-(5-ethoxypyridin-3-yl)benzoyl]piperazin-1-yl]-N-tert-butylsulfonylpyridazine-3-carboxamide]

ASMS ratio (%) (n = 1): 0.0% | ASMS ratio (%) (n = 2): 0.0%
Molecule: CCOc1cncc(-c2ccc(CN3CCN(c4ccc(C(=O)NS(C)(=O)=O)cc4)CC3)c(OC)c2)c1 [B2I054-01, 4-[4-[[4-(5-Ethoxypyridin-3-yl)-2-methoxyphenyl]methyl]piperazin-1-yl]-N-methylsulfonylbenzamide]

ASMS ratio (%) n = 1 (AS-MS, mixture library, Bcl-2): 9.7% | ASMS ratio (%) n = 2 (AS-MS, mixture library, Bcl-2): 0.4%
Molecule: CCOc1cccc(-c2ccc(CN3CCN(c4ccc(C(=O)NS(=O)(=O)CC56CC7CC(CC(C7)C5)C6)cc4)CC3)cc2C)c1 [B2A047-01, N-(1-Adamantylmethylsulfonyl)-4-[4-[[4-(3-ethoxyphenyl)-3-methylphenyl]methyl]piperazin-1-yl]benzamide]

ASMS ratio (%) (n = 1): 0.0% | ASMS ratio (%) (n = 2): 0.0%
Molecule: CCOc1cncc(-c2cc(CN3CCN(c4ccc(C(=O)NS(=O)(=O)CCC(F)(F)F)cc4)CC3)cc(C(F)(F)F)c2)c1 [B2N062-01, 4-[4-[[3-(5-Ethoxypyridin-3-yl)-5-(trifluoromethyl)phenyl]methyl]piperazin-1-yl]-N-(3,3,3-trifluoropropylsulfonyl)benzamide]

ASMS ratio (%) (n = 1): 0.0% | ASMS ratio (%) (n = 2): 0.0%
Molecule: CCOc1cncc(-c2ccc(C(=O)N3CCN(c4ccc(C(=O)NS(=O)(=O)C(C)(C)C)cc4)CC3)c3ccccc23)c1 [B2L036-01, N-tert-Butylsulfonyl-4-[4-[4-(5-ethoxypyridin-3-yl)naphthalene-1-carbonyl]piperazin-1-yl]benzamide]

ASMS ratio (%) n = 1 [2]: 7.0% | ASMS ratio (%) n = 2 [2]: −10.7%
Molecule: CCOc1cccc(-c2ccc(C(=O)N3CCN(c4ccc(C(=O)NCC56CC7CC(CC(C7)C5)C6)nn4)CC3)cc2F)c1 [B1A005-01, N-(1-Adamantylmethyl)-6-[4-[4-(3-ethoxyphenyl)-3-fluorobenzoyl]piperazin-1-yl]pyridazine-3-carboxamide]

— patent US20240132431A1, “METHOD FOR ALKYLATING ACIDIC FUNCTIONAL GROUP” (Chugai Seiyaku Kabushiki Kaisha, priority 2021, published 2024)
